Assay [1] relates to murine SCCVII. Put plainly: Clonogenic assay under aerobic and hypoxic conditions, SCCVII. It is filed as cell-based. Particulars: SCVIII cells; for IC90: Mus musculus, 1 h, hypoxic, 60 min drug exposure, SN (hypoxic), read-out: C10 hypoxic; for HCR: ratio of C10 under aerobic and hypoxic conditions; for RHT: ratio of hypoxic TPZ C10 to hypoxic compound C10. As for the experimental part: Evaluation of the Cytotoxicity of Compounds by Clonogenic Assay Under Aerobic and Hypoxic Conditions.
Compounds representative of the invention were evaluated under both aerobic and hypoxic conditions in clonogenic assays, using three cell lines: human colon carcinoma HT-29, murine SCCVII, and human lung adenocarcinoma LXFL. Clonogenic survival was determined using aerobic and hypoxic SCCVII cell suspensions. Drug exposures were performed using continuously stirred and gassed single cell suspensions (10^6 cells/mL) at 37° C., equilibrated with 5% CO2 in air or N2 for 60 min before drug addition. After a 60 min drug exposure cells were washed by centrifugation and plated to determine colony formation Cytotoxicity was measured as the concentration required to reduce plating efficiency to 10% of controls (C10). The hypoxic cytotoxicity ratio (HCR) was determined as the ratio of the C10 values under aerobic and hypoxic conditions. The relative hypoxic toxicity (RHT) was determined as the ratio of hypoxic TPZ C10 to hypoxic BTO C10. Abbreviations used in Table 2 are:
C10=The concentration of drug (in micromolar) to reduce viable cell numbers to 10% of those of control cell cultures grown under the same conditions but not exposed to drug
(§1) RHT=Relative hypoxic toxicity is defined as the ratio of concentrations of Tirapazamine/test compound to give equal cell killing under hypoxic conditions.
HCR=Hypoxic cytotoxicity ratio is defined as the ratio of drug concentrations under aerobic and hypoxic condition to produce equal cell survival (10%) determined by clonogenic assay

The test system of assay [2] is human colon carcinoma HT-29. Kind of assay: Proliferation assay (IC50) under aerobic and hypoxic conditions, HT-29. It is filed as cell-based. Conditions: for RHT: HT-29, ratio Tirapazamine/test compound under hypoxic conditions; for HCR: HT-29, ratio of IC50 under aerobic and hypoxic conditions; for IC50: Homo sapiens, HT-29, hypoxic (anoxia <0.001% O2), 4 h exposure. On the procedure: Evaluation of the Cytotoxicity of Compounds by Proliferation Assay (IC50) Under Aerobic and Hypoxic Conditions.
Compounds representative of the invention were evaluated under both aerobic and hypoxic conditions in a proliferation assay (IC50), using two cell lines: human colon carcinoma HT-29, and human cervical carcinoma SiHa.
Drug exposures were performed in 96-well plates (Nunc) using either a 37° C. humidified incubator (20% O2, 5% CO2) or in the incubator compartment (37° C.) of an anaerobic chamber (Shell Lab) where palladium catalyst scrubbed gas (90% N2, 5% H2, 5% CO2) ensures severe anoxia (<0.001% O2). For each experiment, compounds were simultaneously tested under both oxic and hypoxic conditions against the HT-29 cell line and included TPZ as an independent internal control at the front and back of the assay (n=2). Final data was pooled from a series of seven independent experiments and is calculated using inter-experimental means. In all cases, 8-methyl-5-nitroquinoline was used as a second internal control to confirm that strict hypoxia was present during the experiment. (Siim et al. Br. J. Cancer 1994, 70, 596-603). Cell cultures were grown in αMEM (Gibco) containing 5% heat inactivated FCS and maintained in exponential growth phase. For each individual experiment an appropriate number of cells were seeded (HT-29=1000) into wells in αMEM÷10% FCS+10 mM added glucose+100 μM 2′-deoxycytidine (2′dCyd), and allowed to attach for 3 h. High glucose (final concentration 17 mM) and the presence of 2′-dCyd minimize hypoxia-induced cell cycle arrest. Replicates were then exposed to BTOs, using 2-fold serial dilutions in triplicate, for a further 4 h. Subsequently cells were washed free of compound using complete media (without glucose/2′-dCyd) and allowed to grow for 5 (oxic) or 6 (anoxic) days. Plates were stained as described previously (Wilson et al., J. Med. Chem. 1989, 32, 31-38) and IC50 values determined.
IC50=The concentration of drug (in micromolar) to reduce viable cell numbers to 50% of those of control cell cultures grown under the same conditions but not exposed to drug
as §1
HCR=Hypoxic cytotoxicity ratio is defined as the ratio of drug concentrations under aerobic and hypoxic condition to produce equal cell survival (50%) determined by proliferation assay

As to `O=C(NCCCNc1n[n+]([O-])c2ccccc2[n+]1[O-])c1cccc2cc3ccccc3nc12` [Compound 17, N-{3-[(1,4-Dioxido-1,2,4-benzotriazin-3-yl)amino]propyl}-4-acridinecarboxamide], in assay [1], the IC90 turned out to be 4.8 µM, the HCR is greater than 6.3 and the RHT is recorded as 1.94.
With `Cc1ccc2c(c1)[n+]([O-])c(NCCCN(C)CCCNC(=O)c1cccc3cc4ccccc4nc13)n[n+]2[O-]` [Compound 85, N-[3-(Methyl{3-[(6-methyl-1,4-dioxido-1,2,4-benzotriazin-3-yl)amino]propyl}amino)propyl]-4-acridinecarboxamide], in assay [2], the RHT came to 26, the HCR is 134 and the IC50 is 0.222 µM.
Taken in the same sequence, the figures for `O=C(NCCNCCNc1n[n+]([O-])c2ccccc2[n+]1[O-])c1cccc2cc3ccccc3nc12` [Compound 37, N-[2-({2-[(1,4-Dioxido-1,2,4-benzotriazin-3-yl)amino]ethyl}amino)ethyl]-4-acridinecarboxamide] were 74, 160 and 0.079 µM.
For the compound `CN(CCCNC(=O)c1cccc2cccnc12)CCCNc1n[n+]([O-])c2ccccc2[n+]1[O-]` [Compound 42, N-{3-[{3-[(1,4-Dioxido-1,2,4-benzotriazin-3-yl)amino]propyl}(methyl)amino]propyl}-8-quinolinecarboxamide], in assay [2], the RHT worked out at 11.2, the HCR was 86.2 and half-maximal inhibition (IC50) required 0.517 µM.
In the same order, the values of `CN(CCCNC(=O)c1cccc2cc3ccccc3nc12)CCCc1n[n+]([O-])c2ccccc2[n+]1[O-]` [Compound 62, N-{3-[[3-(1,4-dioxido-1,2,4-benzotriazin-3-yl)propyl](methyl)amino]propyl}-4-acridinecarboxamide] are 274, 157 and 0.021 µM.
On to `Cc1cccc2cc3cccc(C(=O)NCCCN(C)CCCNc4n[n+]([O-])c5ccccc5[n+]4[O-])c3nc12` [Compound 44, N-{3-[{3-[(1,4-dioxido-1,2,4-benzotriazin-3-yl)amino]propyl}(methyl)amino]-propyl}-5-methyl-4-acridinecarboxamide], for which, in assay [2], the RHT is on record as 25.7; the HCR turned out to be 72.7; the midpoint of inhibition, the IC50, lay at 0.226 µM. Further, in assay [1], the IC90 came out at 0.16 µM, the HCR is greater than 187 and the RHT was 56.3.
As to `CN(CCCNC(=O)c1cccc2ccc(-c3ccncc3)nc12)CCCNc1n[n+]([O-])c2ccccc2[n+]1[O-]` [Compound 43, N-{3-[{3-[(1,4-dioxido-1,2,4-benzotriazin-3-yl)amino]propyl}(methyl)amino]-propyl}-2-(4-pyridyl)-8-quinolinecarboxamide], in assay [2], the RHT was found to be 51.4, the HCR was determined as 119 and the half-inhibitory concentration (IC50) came to 0.113 µM. Also, in assay [1], the IC90 was 1.4 µM, the HCR is 10 and the RHT was 5.7.
Consider `CN(CCCNC(=O)c1cccc2nc3ccccc3nc12)CCCc1n[n+]([O-])c2ccccc2[n+]1[O-]` [Compound 63, N-{3-[[3-(1,4-Dioxido-1,2,4-benzotriazin-3-yl)propyl](methyl)amino]propyl}-1-phenazinecarboxamide], for which, in assay [2], the RHT was determined as 167, the HCR turned out to be 129 and half-maximal inhibition (IC50) was put at 0.034 µM.

Source of the values: patent publication US20070191372A1, “Dna-targeted benzotriazine 1,4-dioxides and their use in cancer therapy” (Auckland Uniservices Limited, priority 2002, published 2007).
